Our source for the IC50 values is patent US8648066B2 (Exelixis, Inc., priority 2009, dated 2014).

The structures appear in SMILES notation. Where only a bound is given, the exact number is not on record here.

The assay addresses mTOR/GbL/Raptor (mTORC1) (Homo sapiens, UniProt P42345). As to the kind of experiment: mTOR/GbL/Raptor (mTORC1) ELISA assay. Format: biochemical. The note with it: phosphorylation of 4E-BP1; 0.2 nM mTORC1, 10 μM ATP; read-out: IC50 in this assay (mTORC1 ELISA). In outline:
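Human mTORC1 (0.2 nM) phosphorylated 50 nM His-tagged 4E-BP1 with 10 µM ATP in HEPES pH 7.2 containing 10 mM MnCl2, 120 min at ambient temperature. Substrate was captured on Ni-chelate plates; phospho-4E-BP1 was detected by primary antibody and HRP secondary with luminescence.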
For orientation: In an ELISA, binding on a coated surface is turned into a signal by an enzyme label.
With `CC1(C)CCc2ncnc(N3CCOc4ccc(-c5cnc(N)c(S(=O)(=O)CC(O)CO)c5)cc4C3)c2C1` (stereo not shown) [Example 431, 3-({2-amino-5-[4-(6,6-dimethyl-5,6,7,8-tetrahydroquinazolin-4-yl)-2,3,4,5-tetrahydro-1,4-benzoxazepin-7-yl]pyridin-3-yl}sulfonyl)propane-1,2-diol], the IC50 (as a rule, the midpoint of a concentration-inhibition curve) fell in the range of 10 to 50 nM.

On to `CC1(C)CCc2ncnc(N3CCOc4ccc(-c5cnc(N)c(S(=O)(=O)N6CC7(CNC7)C6)c5)cc4C3)c2C1` [Example 432, 3-(2,6-diazaspiro[3.3]hept-2-ylsulfonyl)-5-[4-(6,6-dimethyl-5,6,7,8-tetrahydroquinazolin-4-yl)-2,3,4,5-tetrahydro-1,4-benzoxazepin-7-yl]pyridin-2-amine], for which the IC50 was in the range of 10 to 50 nM.

With `CC1(C)CCc2ncnc(N3CCOc4ccc(-c5cnc(N)c(S(=O)(=O)N6CCC6)c5)cc4C3)c2C1` [Example 434, 3-(azetidin-1-ylsulfonyl)-5-[4-(6,6-dimethyl-5,6,7,8-tetrahydroquinazolin-4-yl)-2,3,4,5-tetrahydro-1,4-benzoxazepin-7-yl]pyridine-2-amine], the IC50 was 10 to 50 nM.

For the compound `CC1(C)CCc2ncnc(N3CCOc4ccc(-c5cnc(N)c(S(=O)(=O)N6C[C@H]7C[C@@H]6CN7)c5)cc4C3)c2C1` [Example 435, 2-[(1R,4R)-2,5-diazabicyclo[2.2.1]hept-2-ylsulfonyl]-5-[4-(6,6-dimethyl-5,6,7,8-tetrahydroquinazolin-4-yl)-2,3,4,5-tetrahydro-1,4-benzoxazepin-7-yl]pyridin-2-amine], the IC50 lay within 10 to 50 nM.

Take `CC1(C)CCc2ncnc(N3CCOc4ccc(-c5cnc(N)c(S(=O)(=O)N6C[C@@H]7C[C@H]6CN7)c5)cc4C3)c2C1` [Example 436, 3-[(1S,4S)-2,5-diazabicyclo[2.2.1]hept-2-ylsulfonyl]-5-[4-(6,6-dimethyl-5,6,7,8-tetrahydroquinazolin-4-yl)-2,3,4,5-tetrahydro-1,4-benzoxazepin-7-yl]pyridin-2-amine]: the IC50 is not above 10 nM.

In the case of `CC[C@H]1CCc2c(ncnc2N2CCOc3ccc(-c4cnc(N)c(S(=O)(=O)N5C[C@@H]6C[C@H]5CN6)c4)cc3C2)C1` [Example 437, 3-[(1S,4S)-2,5-diazabicyclo[2.2.1]hept-2-ylsulfonyl]-5-{4-[(7S)-7-ethyl-5,6,7,8-tetrahydroquinazolin-4-yl]-2,3,4,5-tetrahydro-1,4-benzoxazepin-7-yl}pyridin-2-amine], the IC50 was in the range of 10 to 50 nM.

`CC1(C)CCc2ncnc(N3CCOc4ccc(-c5cnc(N)c(S(=O)(=O)N6CC(F)(F)C6)c5)cc4C3)c2C1` [Example 438, 3-[(3,3-difluoroazetidin-1-yl)sulfonyl]-5-[4-(6,6-dimethyl-5,6,7,8-tetrahydroquinazolin-4-yl)-2,3,4,5-tetrahydro-1,4-benzoxazepin-7-yl]pyridin-2-amine]: the IC50 was in the range of 50 to 250 nM.

As to `CC1(C)CCc2ncnc(N3CCOc4ccc(-c5cnc(N)c(S(=O)(=O)N6CC(C)(N)C6)c5)cc4C3)c2C1` [Example 439, 3-[(3-amino-3-methylazetidin-1-yl)sulfonyl]-5-[4-(6,6-dimethyl-5,6,7,8-tetrahydroquinazolin-4-yl)-2,3,4,5-tetrahydro-1,4-benzoxazepin-7-yl]pyridin-2-amine], the IC50 is not above 10 nM.

Regarding `CC1(C)CCc2ncnc(N3CCOc4ccc(-c5cnc(N)c(S(=O)(=O)N6CCC(C)(N)C6)c5)cc4C3)c2C1` (stereo not shown) [Example 440, 3-[(3-amino-3-methylpyrrolidin-1-yl)sulfonyl]-5-[4-(6,6-dimethyl-5,6,7,8-tetrahydroquinazolin-4-yl)-2,3,4,5-tetrahydro-1,4-benzoxazepin-7-yl]pyridin-2-amine], the IC50 is not above 10 nM.

Turning to `CC[C@H]1CCc2c(nc(C)nc2N2CCOc3ccc(-c4cnc(N)c(S(=O)(=O)N5CCC(C)(N)C5)c4)cc3C2)C1` (stereo partly drawn) [Example 441, 3-[(3-amino-3-methylpyrrolidin-1-yl)sulfonyl]-5-{4-[(7S)-7-ethyl-2-methyl-5,6,7,8-tetrahydroquinazolin-4-yl]-2,3,4,5-tetrahydro-1,4-benzoxazepin-7-yl}pyridin-2-amine], the IC50 lay within 10 to 50 nM.

With `CC[C@H]1CCc2c(ncnc2N2CCOc3ccc(-c4cnc(N)c(S(=O)(=O)N5CCC(C)(N)C5)c4)cc3C2)C1` (stereo partly drawn) [Example 442, 3-[(3-amino-3-methylpyrrolidin-1-yl)sulfonyl]-5-{4-[(7S)-7-ethyl-5,6,7,8-tetrahydroquinazolin-4-yl]-2,3,4,5-tetrahydro-1,4-benzoxazepin-7-yl}pyridin-2-amine], the IC50 lay in the range of 10 to 50 nM.

For `CC1(C)CCc2ncnc(N3CCOc4ccc(-c5cnc(N)c(S(=O)(=O)N6CC(N)C6)c5)cc4C3)c2C1` [Example 443, 3-[(3-aminoazetidin-1-yl)sulfonyl]-5-[4-(6,6-dimethyl-5,6,7,8-tetrahydroquinazolin-4-yl)-2,3,4,5-tetrahydro-1,4-benzoxazepin-7-yl]pyridin-2-amine], the IC50 is not above 10 nM.

On to `CC1(C)CCc2ncnc(N3CCOc4ccc(-c5cnc(N)c(S(=O)(=O)N6CCCC(N)C6)c5)cc4C3)c2C1` (stereo not shown) [Example 444, 3-[(3-aminopiperidin-1-yl)sulfonyl]-5-[4-(6,6-dimethyl-5,6,7,8-tetrahydroquinazolin-4-yl)-2,3,4,5-tetrahydro-1,4-benzoxazepin-7-yl]pyridin-2-amine], for which the IC50 lay within 10 to 50 nM.

As to `CC1(C)CCc2ncnc(N3CCOc4ccc(-c5cnc(N)c(S(=O)(=O)N6CCC(N)CC6)c5)cc4C3)c2C1` [Example 446, 3-[(4-aminopiperidin-1-yl)sulfonyl]-5-[4-(6,6-dimethyl-5,6,7,8-tetrahydroquinazolin-4-yl)-2,3,4,5-tetrahydro-1,4-benzoxazepin-7-yl]pyridin-2-amine], the IC50 lay within 10 to 50 nM.

`CC1=Cc2ncnc(N3CCOc4ccc(-c5cnc(N)c(S(=O)(=O)N6CC[C@@H](N)C6)c5)cc4C3)c2CC1(C)C` [Example 447, 3-{[(3R)-3-aminopyrrolidin-1-yl]sulfonyl}-5-[4-(6,6,7-trimethyl-5,6-dihydroquinazolin-4-yl)-2,3,4,5-tetrahydro-1,4-benzoxazepin-7-yl]pyridin-2-amine]: the 50% inhibitory concentration (IC50) is not above 10 nM.

`CC1=CC(C)(C)Cc2c1ncnc2N1CCOc2ccc(-c3cnc(N)c(S(=O)(=O)N4CC[C@@H](N)C4)c3)cc2C1` [Example 448, 3-{[(3R)-3-aminopyrrolidin-1-yl]sulfonyl}-5-[4-(6,6,8-trimethyl-5,6-dihydroquinazolin-4-yl)-2,3,4,5-tetrahydro-1,4-benzoxazepin-7-yl]pyridin-2-amine]: the IC50 was not above 10 nM.

Regarding `CC1(C)CCc2ncnc(N3CCOc4ccc(-c5cnc(N)c(S(=O)(=O)N6CC[C@@H](N)C6)c5)cc4C3)c2C1` [Example 449, 3-{[(3R)-3-aminpyrrolidin-1-yl]sulfonyl}-5-[4-(6,6-dimethyl-5,6,7,8-tetrahydroquinazolin-4-yl)-2,3,4,5-tetrahydro-1,4-benzoxazepin-7-yl]pyridin-2-amine], the IC50 was not above 10 nM.

With `CC1(C)C=Cc2ncnc(N3CCOc4ccc(-c5cnc(N)c(S(=O)(=O)N6CC[C@@H](N)C6)c5)cc4C3)c2C1` [Example 450, 3-{[(3R)-3-aminopyrrolidin-1-yl]sulfonyl}-5-[4-(6,6-dimethyl-5,6-dihydroquinazolin-4-yl)-2,3,4,5-tetrahydro-1,4-benzoxazepin-7-yl]pyridin-2-amine], the concentration for half-maximal inhibition (IC50) was not above 10 nM.

For the compound `CC[C@H]1CCc2c(ncnc2N2CCOc3ccc(-c4cnc(N)c(S(=O)(=O)N5CC[C@@H](N)C5)c4)cc3C2)C1` [Example 451, 3-{[(3R)-3-aminopyrrolidin-1-yl]sulfonyl}-5-{4-[(7S)-7-ethyl-5,6,7,8-tetrahydroquinazolin-4-yl]-2,3,4,5-tetrahydro-1,4-benzoxazepin-7-yl}pyridin-2-amine], the IC50 is 10 to 50 nM.

As to `CC1(C)CCc2ncnc(N3CCOc4ccc(-c5cnc(N)c(S(=O)(=O)N6CC[C@H](N)C6)c5)cc4C3)c2C1` [Example 452, 3-{[(3S)-3-aminopyrrolidin-1-yl]sulfonyl}-5-[4-(6,6-dimethyl-5,6,7,8-tetrahydroquinazolin-4-yl)-2,3,4,5-tetrahydro-1,4-benzoxazepin-7-yl]pyridin-2-amine], the IC50 is not above 10 nM.

As for `CC1(C)CCc2ncnc(N3CCOc4ccc(-c5cnc(O)c(S(=O)(=O)N6CC[C@H](N)C6)c5)cc4C3)c2C1` [Example 453, 3-{[(3S)-3-aminopyrrolidin-1-yl]sulfonyl}-5-[4-(6,6-dimethyl-5,6,7,8-tetrahydroquinazolin-4-yl)-2,3,4,5-tetrahydro-1,4-benzoxazepin-7-yl]pyridin-2-ol], the IC50 lay in the range of 50 to 250 nM.

For `COc1ccc2c(N3CCOc4ccc(-c5cnc(N)c(S(=O)(=O)N6CC[C@H](N)C6)c5)cc4C3)ncnc2c1` [Example 454, 3-{[(3S)-3-aminopyrrolidin-1-yl]sulfonyl}-5-{4-[7-(methyloxy)quinazolin-4-yl]-2,3,4,5-tetrahydro-1,4-benzoxazepin-7-yl}pyridin-2-amine], the IC50 lay in the range of 250 to 1000 nM.

Take `CN(C)C1CN(S(=O)(=O)c2cc(-c3ccc4c(c3)CN(c3ncnc5c3CC(C)(C)CC5)CCO4)cnc2N)C1` [Example 455, 3-{[3-(dimethylamino)azetidin-1-yl]sulfonyl}-5-[4-(6,6-dimethyl-5,6,7,8-tetrahydroquinazolin-4-yl)-2,3,4,5-tetrahydro-1,4-benzoxazepin-7-yl]pyridin-2-amine]: the IC50 lay in the range of 50 to 250 nM.

As for `COc1ccc2c(N3CCOc4ccc(-c5cccc(C(=O)O)c5)cc4C3)nc(C)nc2c1` [Example 456, 3-{4-[2-methyl-7-(methyloxy)quinazolin-4-yl]-2,3,4,5-tetrahydro-1,4-benzoxazepin-7-yl}benzoic acid], the IC50 is not below 2000 nM.

On to `CC1(C)CCc2ncnc(N3CCOc4ccc(-c5cnc(C(N)=O)c(N)c5)cc4C3)c2C1` [Example 457, 3-amino-5-[4-(6,6-dimethyl-5,6,7,8-tetrahydroquinazolin-4-yl)-2,3,4,5-tetrahydro-1,4-benzoxazepin-7-yl]pyridine-2-carboxamide], for which the IC50 fell in the range of 50 to 250 nM.
